Substitutions are numbered along the chain they refer to.
Tests used:
[1] = target: T1, human SNP variant (S309L) of GPR119 (Homo sapiens, UniProt Q8TDV5, S309L); test: GPR119 signaling, cAMP homogenous time resolved fluorescence (HTRF) assay; assay type: cell-based; conditions: HEK293 Flp-In cells stably transfected with human GPR119 (S309L), HTRF kit
T1 construct: expressed in transfected cells; host or cells: HEK293 Flp-In (Invitrogen)
T1 sequence (Q8TDV5 1-335 S309L): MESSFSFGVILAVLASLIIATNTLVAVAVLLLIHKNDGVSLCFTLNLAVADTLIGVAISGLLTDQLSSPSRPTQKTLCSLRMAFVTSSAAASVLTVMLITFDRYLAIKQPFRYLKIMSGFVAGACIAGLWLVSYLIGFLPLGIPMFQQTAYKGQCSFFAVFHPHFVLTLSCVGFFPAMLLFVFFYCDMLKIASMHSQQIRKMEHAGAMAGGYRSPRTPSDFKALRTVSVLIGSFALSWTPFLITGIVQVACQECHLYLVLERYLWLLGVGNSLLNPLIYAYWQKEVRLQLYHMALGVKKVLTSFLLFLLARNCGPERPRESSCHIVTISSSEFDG
Description: Measurement of GPR119 Signaling Using a Cyclic AMP (cAMP) Homogenous Time Resolved Fluorescence (HTRF) Assay
Chinese hamster ovary (CHO) cell lines stably transfected with the permissive guanine nucleotide binding protein alpha 15 (Gals) and murine GPR119 were maintained in DMEM media containing FBS, penicillin-streptomycin, puromycin, and G418 (geneticin). Alternatively, human embryonic kidney (HEK)293 Flp-In cells (Invitrogen, Carlsbad, Calif.) were stably transfected with a human SNP variant (S309L) of GPR119 and maintained in DMEM media containing FBS, penicillin-streptomycin, and hygromycin. Agonist activation of the GPR119 receptor was measured in receptor transfected cells described above, treated with compounds of this invention, using a commercial homogenous time resolved fluorescence (HTRF) kit for measurement of cAMP (CisBio, Bedford, Mass.). The assay was performed in 96-well half-volume plates (murine) or 384-well plates (human) following the manufacturers instructions. Briefly, suspended cells were incubated with a dose titration of test compound at RT for 60 min, lysed, and incubated with HTRF reagents for an additional 60 min. The plate was read using an Envision multilabel reader (Perkin Elmer) adjusted to read time resolved fluorescence and the cAMP concentrations were extrapolated from a cAMP calibration curve. […] The concentration of test compound required to stimulate a half-maximal response (EC50), and efficacy as compared to an internal agonist control, was determined from a sigmoidal 4-parameter curve fit of the resulting plot of normalized activity versus compound concentration.

[2] = target: T2, human GPR119 (Homo sapiens, UniProt Q8TDV5); test: Measurement of GPR119 signaling using LANCE 384-well cAMP kit (LCMP assay); assay type: cell-based; conditions: HEK293 cells stably transfected with human GPR119
T2 construct: expressed in transfected cells; host or cells: HEK293
T2 sequence (Q8TDV5 1-335): T1 sequence (Q8TDV5 1-335 S309L) with L309S
Outline: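 HEK293 cells stably expressing human GPR119, in stimulation buffer at pH 7.4 with 100 μM phosphodiesterase inhibitors, exposed to a 10-point compound dilution (2.5% DMSO final) for 45 min. cAMP measured by LANCE TR-FRET at 665 nm against a cAMP standard curve, normalized between DMSO basal and an internal agonist maximum, with a 4-parameter fit.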

Structure (SMILES)	EC50 [1] [nM]	EC50 [2] [nM]
CS(=O)(=O)c1ccc(COC[C@H]2C[C@@H]2C2CCN(c3ncc(Cl)cn3)CC2)nc1 [Example 1, 5-chloro-2-(4-((1R,2S)-2-(((5-(methylsulfonyl)pyridin-2-yl)methoxy)methyl)cyclopropyl)piperidin-1-yl)pyrimidine]	3.8	
CS(=O)(=O)c1ccc(COC[C@H]2C[C@@H]2C2CCN(c3ncc(Cl)cn3)CC2)cc1 [Example 2, 5-chloro-2-(4-((1R,2S)-2-(((4-(methylsulfonyl)benzyl)oxy)methyl)cyclopropyl)piperidin-1-yl)pyrimidine]	1.2	
CCS(=O)(=O)c1ccc(COC[C@H]2C[C@@H]2C2CCN(c3ncc(Cl)cn3)CC2)cc1 [Example 3, 5-chloro-2-(4-((1R,2S)-2-(((4-(ethylsulfonyl)benzyl)oxy)methyl)cyclopropyl)piperidin-1-yl)pyrimidine]	0.73	
CS(=O)(=O)c1ccc(COC[C@H]2C[C@@H]2C2CCN(c3ncc(Cl)cn3)CC2)cc1F [Example 5, 5-chloro-2-(4-((1R,2S)-2-(((3-fluoro-4-(methylsulfonyl)benzyl)oxy)methyl)cyclopropyl)piperidin-1-yl)pyrimidine]	1	
Cc1cnc(N2CCC([C@H]3C[C@@H]3COCc3ccc(S(C)(=O)=O)cc3)CC2)nc1 [Example 6, 5-methyl-2-(4-((1R,2S)-2-(((4-(methylsulfonyl)benzyl)oxy)methyl)cyclopropyl)piperidin-1-yl)pyrimidine]	7.1	
CCS(=O)(=O)c1ccc(COC[C@H]2C[C@@H]2C2CCN(c3ncc(C)cn3)CC2)cc1 [Example 7, 2-(4-((1R,2S)-2-(((4-(ethylsulfonyl)benzyl)oxy)methyl)cyclopropyl)piperidin-1-yl)-5-methylpyrimidine]	5.8	
CCc1cnc(N2CCC([C@H]3C[C@@H]3COCc3ccc(S(C)(=O)=O)cc3)CC2)nc1 [Example 10, 5-ethyl-2-(4-((1R,2S)-2-(((4-(methylsulfonyl)benzyl)oxy)methyl)cyclopropyl)piperidin-1-yl)pyrimidine]	1.9	
CS(=O)(=O)c1ccc(COC[C@H]2C[C@@H]2C2CCN(C(=O)OC3CC3)CC2)cc1F [Example 15, cyclopropyl 4-((1R,2S)-2-(((3-fluoro-4-(methylsulfonyl)benzyl)oxy)methyl)cyclopropyl)piperidine-1-carboxylate]	2.4	
CC1(OC(=O)N2CCC([C@H]3C[C@@H]3CCOc3ccc(-n4cnnn4)cc3F)CC2)CC1 [Example 107, 1-methylcyclopropyl 4-((1R,2R)-2-(2-(2-fluoro-4-(1H-tetrazol-1-yl)phenoxy)ethyl)cyclopropyl)piperidine-1-carboxylate]		17
CC1(OC(=O)N2CCC([C@@H]3C[C@H]3CCOc3ccc(CC(=O)N4CCC4)cc3F)CC2)CC1 [Example 108, 1-methylcyclopropyl 4-((1S,2S)-2-(2-(4-(2-(azetidin-1-yl)-2-oxoethyl)-2-fluorophenoxy)ethyl)cyclopropyl)piperidine-1-carboxylate]		24
CS(=O)(=O)c1ccc(OCC[C@H]2C[C@@H]2C2CCN(c3ncc(Cl)cn3)CC2)nc1 [Example 109, 5-chloro-2-(4-((1R,2R)-2-(2-(5-(methylsulfonyl)pyridin-2-yloxy)ethyl)cyclopropyl)piperidin-1-yl)pyrimidine]		22
CC(C)c1noc(N2CCC([C@H]3C[C@@H]3CCOc3ccc(S(C)(=O)=O)cn3)CC2)n1 [Example 110, 3-isopropyl-5-(4-((1R,2R)-2-(2-(5-(methylsulfonyl)pyridin-2-yloxy)ethyl)cyclopropyl)piperidin-1-yl)-1,2,4-oxadiazole]		18
CCS(=O)(=O)c1ccc(OCC[C@@H]2C[C@H]2C2CCN(c3nc(C(C)C)no3)CC2)nc1 [Example 111, 5-(4-((1S ,2S)-2-(2-((5-(ethylsulfonyl)pyridin-2-yl)oxy)ethyl)cyclopropyl)piperidin-1-yl)-3-isopropyl-1,2,4-oxadiazole]		17
CCc1cnc(N2CCC([C@H]3C[C@@H]3CCOc3ccc(CC(=O)N4CCC4)cn3)CC2)nc1 [Example 115, 1-(azetidin-1-yl)-2-(6-(2-((1R,2R)-2-(1-(5-ethylpyrimidin-2-yl)piperidin-4-yl)cyclopropyl)ethoxy)pyridin-3-yl)ethanone]		10
CCc1cnc(N2CCC([C@@H]3C[C@H]3CCOc3ccc(CC(=O)N4CCC4)cn3)CC2)nc1 [Example 116, 1-(azetidin-1-yl)-2-(6-(2-((1S,2S)-2-(1-(5-ethylpyrimidin-2-yl)piperidin-4-yl)cyclopropyl)ethoxy)pyridin-3-yl)ethanone]		9.7
CCc1cnc(N2CCC([C@H]3C[C@@H]3CCOc3cc(F)cc(F)c3CC(=O)N(C)C)CC2)nc1 [Example 117, 2-(2-(2-((1R,2R)-2-(1-(5-ethylpyrimidin-2-yl)piperidin-4-yl)cyclopropyl)ethoxy)-4,6-difluorophenyl)-N,N-dimethylacetamide]		12
CCc1cnc(N2CCC([C@@H]3C[C@H]3CCOc3cc(F)cc(F)c3CC(=O)N3CCC3)CC2)nc1 [Example 118, 1-(azetidin-1-yl)-2-(2-(2-((1S,2S)-2-(1-(5-ethylpyrimidin-2-yl)piperidin-4-yl)cyclopropyl)ethoxy)-4,6-difluorophenyl)ethanone]		17
CCc1cnc(N2CCC([C@H]3C[C@@H]3CCOc3cc(F)cc(F)c3CC(=O)N3CCC3)CC2)nc1 [Example 119, 1-(azetidin-1-yl)-2-(2-(2-((1R,2R)-2-(1-(5-ethylpyrimidin-2-yl)piperidin-4-yl)cyclopropyl)ethoxy)-4,6-difluorophenyl)ethanone]		17
CC1(OC(=O)N2CCC([C@@H]3C[C@H]3CCOc3ccc(CC(=O)N4CCC4)cn3)CC2)CC1 [Example 120, 1-methylcyclopropyl 4-((1S,2S)-2-(2-(5-(2-(azetidin-1-yl)-2-oxoethyl)pyridin-2-yloxy)ethyl)cyclopropyl)piperidine-1-carboxylate]		21
CC(C)c1noc(N2CCC([C@@H]3C[C@H]3CCOc3ccc(CC(=O)N4CCC4)cn3)CC2)n1 [Example 121, 1-(azetidin-1-yl)-2-(6-(2-((1S,2S)-2-(1-(3-isopropyl-1,2,4-oxadiazol-5-yl)piperidin-4-yl)cyclopropyl)ethoxy)pyridin-3-yl)ethanone]		24
CC(C)c1noc(N2CCC([C@H]3C[C@@H]3CCOc3cc(F)cc(F)c3CC(=O)N(C)C)CC2)n1 [Example 122, 2-(2,4-difluoro-6-(2-((1R,2R)-2-(1-(3-isopropyl-1,2,4-oxadiazol-5-yl)piperidin-4-yl)cyclopropyl)ethoxy)phenyl)-N,N-dimethylacetamide]		20
Clc1cnc(N2CCC([C@H]3C[C@@H]3CCNc3ncc(-n4cnnn4)cn3)CC2)nc1 [Example 123, N-(2-((1R,2S)-2-(1-(5-chloropyrimidin-2-yl)piperidin-4-yl)cyclopropyl)ethyl)-5-(1H-tetrazol-1-yl)pyrimidin-2-amine]		10
CCc1cnc(N2CCC([C@H]3C[C@@H]3CCNc3ncc(-n4cnnn4)cn3)CC2)nc1 [Example 125, N-(2-((1R,2S)-2-(1-(5-ethylpyrimidin-2-yl)piperidin-4-yl)cyclopropyl)ethyl)-5-(1H-tetrazol-1-yl)pyrimidin-2-amine]		18
CC(C)c1noc(N2CCC([C@@H]3C[C@H]3CCNc3ncc(-n4cnnn4)cn3)CC2)n1 [Example 126, N-(2-((1S,2R)-2-(1-(3-isopropyl-1,2,4-oxadiazol-5-yl)piperidin-4-yl)cyclopropyl)ethyl)-5-(1H-tetrazol-1-yl)pyrimidin-2-amine]		16

Reference: US20150274664A1 (MERCK SHARP & DOHME CORP., priority 2012, published 2015)
